How the values were obtained:
Human neurokinin (NK1) = molecular target: T1, Human neurokinin (NK1) (Homo sapiens, UniProt P25103); test: Radioligand binding, human neurokinin NK1 membranes, filtration, [125I]-Substance P; conditions: compound at 10 μM; [125I]-Substance P
T1 construct: purchased Perkin Elmer Biosignal
In short: (§1)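 Filtration binding on cloned human receptor membranes (1 Unit/well), [125I]-Substance P for NK1 and [3H]-Diprenorphine for KOP, 1 h at room temperature. Filters PEI-presoaked, washed with cold 50 mM Tris-HCl pH 7.4, counted by scintillation; percent inhibition calculated, reference ligand defining non-specific binding.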

Human κ-Opioid (KOP) = molecular target: T2, Human κ-Opioid (KOP) (Homo sapiens, UniProt P41145); test: Radioligand binding, human κ-opioid (KOP) membranes, filtration, [3H]-Diprenorphine; conditions: compound at 10 μM; [3H]-Diprenorphine
T2 construct: purchased Perkin Elmer Biosignal
In short: as §1

[1] = molecular target: T3, Human melanin-concentrating hormone (MCH1) (Homo sapiens, UniProt Q99705); test: Radioligand binding, human melanin-concentrating hormone MCH1 membranes, FlashPlate, [125I]-S36057; conditions: compound at 10 μM; [125I]-S36057
T3 construct: purchased Perkin Elmer Biosignal
In short: (§2)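 Cloned human receptor membranes were coated onto FlashPlate wells and incubated with radioligand and compound (added from a 0.5 mM DMSO daughter plate) for 1 hour at room temperature in the dark. Scintillation counting gave percent inhibition, with DMSO defining total and reference ligand defining non-specific binding.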

Human δ-opioid (DOP) = molecular target: T4, Human δ-opioid (DOP) (Homo sapiens, UniProt P41143); test: Radioligand binding, human δ-opioid (DOP) membranes, FlashPlate, [3H]-Bremazocine; conditions: compound at 10 μM; [3H]-Bremazocine
T4 construct: purchased Perkin Elmer Biosignal
In short: as §2

[2] = molecular target: T5, Human neuropeptide Y (NPY-Y1) (Homo sapiens, UniProt P25929); test: Radioligand binding, human neuropeptide Y NPY-Y1 membranes, FlashPlate, [125I]-PYY; conditions: compound at 10 μM; [125I]-PYY
T5 construct: purchased Perkin Elmer Biosignal
T5 sequence (P25929 1-384): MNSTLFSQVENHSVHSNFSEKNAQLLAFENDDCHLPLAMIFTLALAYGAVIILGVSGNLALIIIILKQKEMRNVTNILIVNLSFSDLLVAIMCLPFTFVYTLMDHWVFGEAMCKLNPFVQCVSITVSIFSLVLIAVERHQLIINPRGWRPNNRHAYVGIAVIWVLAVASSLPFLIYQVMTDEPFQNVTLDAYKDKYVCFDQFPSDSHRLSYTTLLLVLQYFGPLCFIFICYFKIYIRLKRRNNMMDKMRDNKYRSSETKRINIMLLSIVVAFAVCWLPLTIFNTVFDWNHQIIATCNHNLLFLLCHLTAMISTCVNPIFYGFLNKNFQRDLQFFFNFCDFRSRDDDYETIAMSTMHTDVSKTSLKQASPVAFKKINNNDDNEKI
In short: as §2

Mouse urotensin (mUR2) = molecular target: T6, Mouse urotensin (mUR2) (Mus musculus, UniProt Q8VIH9); test: Radioligand binding, mouse urotensin mUR2 membranes, FlashPlate, [125I]-Urotensin II; conditions: compound at 10 μM; [125I]-Urotensin II
T6 construct: purchased Perkin Elmer Biosignal
T6 sequence (Q8VIH9 1-385): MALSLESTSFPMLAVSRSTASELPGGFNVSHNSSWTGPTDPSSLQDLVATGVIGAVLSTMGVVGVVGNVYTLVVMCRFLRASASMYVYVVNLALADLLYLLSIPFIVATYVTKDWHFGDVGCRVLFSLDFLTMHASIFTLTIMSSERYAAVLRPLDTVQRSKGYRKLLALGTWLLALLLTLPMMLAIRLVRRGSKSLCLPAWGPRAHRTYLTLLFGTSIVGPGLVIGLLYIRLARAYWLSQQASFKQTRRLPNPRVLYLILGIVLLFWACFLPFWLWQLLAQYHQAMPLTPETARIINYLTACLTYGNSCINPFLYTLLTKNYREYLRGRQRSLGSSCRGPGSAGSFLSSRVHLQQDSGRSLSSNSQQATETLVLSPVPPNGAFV
In short: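 Cloned mouse urotensin (mUR2) receptor membranes from Perkin Elmer Biosignal were immobilized in FlashPlate microplates using a proprietary coating. Each well got 19.5 μl buffer, then 0.5 μl of DMSO, reference ligand, or compound. Adding 5 μl of [125I]-Urotensin II, diluted to 5× final concentration in binding buffer, started binding. Plates were sealed with TopSeal-A and incubated 1 hour at room temperature in the dark. Wells were counted for 30 seconds each on a TopCount after a 60-second delay, and percentage inhibition was calculated.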

Human opioid (ORL1) = molecular target: T7, Human opioid (ORL1) (Homo sapiens, UniProt P41146); test: Radioligand binding, human opioid ORL1 membranes, FlashPlate, [125I]-Nociceptin; conditions: compound at 10 μM; [125I]-Nociceptin
T7 construct: purchased Perkin Elmer Biosignal
In short: as §2

Human μ-opioid (MOP) = molecular target: T8, Human μ-opioid (MOP) (Homo sapiens, UniProt P35372); test: Radioligand binding, human μ-opioid (MOP) membranes, FlashPlate, [3H]-Naloxone; conditions: compound at 10 μM; [3H]-Naloxone
T8 construct: purchased Perkin Elmer Biosignal
In short: as §2

Human Melanocortin (MC4) = molecular target: T9, Human Melanocortin (MC4) (Homo sapiens, UniProt P32245); test: Radioligand binding, human melanocortin MC4 membranes, FlashPlate, [125I]-NDP-αMSH; conditions: compound at 10 μM; [125I]-NDP-αMSH
T9 construct: purchased Perkin Elmer Biosignal
In short: as §2

Human melanocortin (MC5) = molecular target: T10, Human melanocortin (MC5) (Homo sapiens, UniProt P33032); test: Radioligand binding, human melanocortin MC5 membranes, FlashPlate, [125I]-NDP-αMSH; conditions: compound at 10 μM; [125I]-NDP-αMSH
T10 construct: purchased Perkin Elmer Biosignal
In short: as §2

Human Melanocortin (MC3) = molecular target: T11, Human Melanocortin (MC3) (Homo sapiens, UniProt P41968); test: Radioligand binding, human melanocortin MC3 membranes, FlashPlate, [125I]-NDP-αMSH; conditions: compound at 10 μM; [125I]-NDP-αMSH
T11 construct: purchased Perkin Elmer Biosignal
In short: as §2

T3 sequence (Q99705 whole entry): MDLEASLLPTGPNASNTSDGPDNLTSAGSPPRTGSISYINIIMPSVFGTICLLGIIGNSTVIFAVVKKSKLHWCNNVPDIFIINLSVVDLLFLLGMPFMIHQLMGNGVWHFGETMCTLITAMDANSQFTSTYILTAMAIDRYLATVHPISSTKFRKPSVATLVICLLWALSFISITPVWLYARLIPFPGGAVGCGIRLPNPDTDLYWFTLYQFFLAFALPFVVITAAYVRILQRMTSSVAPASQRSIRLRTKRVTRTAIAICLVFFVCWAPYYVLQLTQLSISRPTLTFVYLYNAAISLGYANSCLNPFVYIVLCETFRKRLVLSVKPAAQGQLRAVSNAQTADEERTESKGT
T7 sequence (P41146 whole entry): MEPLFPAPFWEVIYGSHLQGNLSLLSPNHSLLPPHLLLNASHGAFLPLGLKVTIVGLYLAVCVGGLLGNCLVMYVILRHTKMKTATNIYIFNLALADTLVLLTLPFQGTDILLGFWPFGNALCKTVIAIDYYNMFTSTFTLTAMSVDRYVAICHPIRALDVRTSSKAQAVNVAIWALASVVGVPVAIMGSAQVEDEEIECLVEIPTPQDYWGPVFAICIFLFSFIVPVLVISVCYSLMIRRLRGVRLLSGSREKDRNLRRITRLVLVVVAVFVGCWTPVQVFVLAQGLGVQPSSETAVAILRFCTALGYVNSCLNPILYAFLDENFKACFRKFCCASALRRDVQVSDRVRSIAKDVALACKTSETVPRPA
T11 sequence (P41968 whole entry): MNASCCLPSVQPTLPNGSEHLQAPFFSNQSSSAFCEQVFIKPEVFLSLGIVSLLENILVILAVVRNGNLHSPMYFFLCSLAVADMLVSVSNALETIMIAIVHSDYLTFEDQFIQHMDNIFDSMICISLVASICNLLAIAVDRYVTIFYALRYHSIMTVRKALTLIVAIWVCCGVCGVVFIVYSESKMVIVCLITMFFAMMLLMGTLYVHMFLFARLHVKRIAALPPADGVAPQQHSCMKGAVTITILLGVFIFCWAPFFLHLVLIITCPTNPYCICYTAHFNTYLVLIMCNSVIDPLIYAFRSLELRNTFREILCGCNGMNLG
T8 sequence (P35372 whole entry): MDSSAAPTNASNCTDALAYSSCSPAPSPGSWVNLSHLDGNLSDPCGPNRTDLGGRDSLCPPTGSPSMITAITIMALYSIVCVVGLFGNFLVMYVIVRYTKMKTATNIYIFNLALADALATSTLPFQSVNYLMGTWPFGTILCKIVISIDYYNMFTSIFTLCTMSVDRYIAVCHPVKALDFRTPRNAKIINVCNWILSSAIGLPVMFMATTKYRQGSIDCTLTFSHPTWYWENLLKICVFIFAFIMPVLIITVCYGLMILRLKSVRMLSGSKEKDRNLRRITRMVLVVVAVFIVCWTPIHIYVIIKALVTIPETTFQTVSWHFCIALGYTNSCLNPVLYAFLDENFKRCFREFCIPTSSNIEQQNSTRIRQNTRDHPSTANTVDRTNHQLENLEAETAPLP
T9 sequence (P32245 whole entry): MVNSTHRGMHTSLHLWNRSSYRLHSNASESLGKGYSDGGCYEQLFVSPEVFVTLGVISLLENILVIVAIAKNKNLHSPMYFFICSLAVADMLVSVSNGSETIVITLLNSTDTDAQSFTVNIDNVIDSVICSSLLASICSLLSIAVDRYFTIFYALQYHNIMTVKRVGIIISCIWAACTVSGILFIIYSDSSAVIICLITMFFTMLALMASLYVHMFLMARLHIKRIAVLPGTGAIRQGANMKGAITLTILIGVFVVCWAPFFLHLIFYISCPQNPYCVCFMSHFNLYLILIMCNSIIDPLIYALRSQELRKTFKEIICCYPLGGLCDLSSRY
T10 sequence (P33032 whole entry): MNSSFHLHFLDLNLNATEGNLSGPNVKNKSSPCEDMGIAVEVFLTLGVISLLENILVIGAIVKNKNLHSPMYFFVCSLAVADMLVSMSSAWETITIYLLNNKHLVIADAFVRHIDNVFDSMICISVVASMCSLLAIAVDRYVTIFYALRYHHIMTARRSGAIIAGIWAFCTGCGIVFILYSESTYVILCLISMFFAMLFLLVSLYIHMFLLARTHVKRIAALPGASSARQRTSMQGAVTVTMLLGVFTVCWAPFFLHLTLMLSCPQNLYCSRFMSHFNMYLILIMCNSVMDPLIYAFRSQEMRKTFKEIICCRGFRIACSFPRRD
T4 sequence (P41143 whole entry): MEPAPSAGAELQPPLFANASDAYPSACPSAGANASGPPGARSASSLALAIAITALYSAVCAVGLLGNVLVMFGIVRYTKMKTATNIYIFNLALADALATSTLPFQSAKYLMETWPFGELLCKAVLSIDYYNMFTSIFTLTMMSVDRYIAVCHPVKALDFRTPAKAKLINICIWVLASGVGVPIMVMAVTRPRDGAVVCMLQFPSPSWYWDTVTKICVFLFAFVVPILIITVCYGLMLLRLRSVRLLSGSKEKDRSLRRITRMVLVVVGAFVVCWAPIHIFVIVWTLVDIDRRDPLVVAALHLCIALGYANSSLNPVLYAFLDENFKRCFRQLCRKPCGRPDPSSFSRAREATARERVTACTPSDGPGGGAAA
T2 sequence (P41145 whole entry): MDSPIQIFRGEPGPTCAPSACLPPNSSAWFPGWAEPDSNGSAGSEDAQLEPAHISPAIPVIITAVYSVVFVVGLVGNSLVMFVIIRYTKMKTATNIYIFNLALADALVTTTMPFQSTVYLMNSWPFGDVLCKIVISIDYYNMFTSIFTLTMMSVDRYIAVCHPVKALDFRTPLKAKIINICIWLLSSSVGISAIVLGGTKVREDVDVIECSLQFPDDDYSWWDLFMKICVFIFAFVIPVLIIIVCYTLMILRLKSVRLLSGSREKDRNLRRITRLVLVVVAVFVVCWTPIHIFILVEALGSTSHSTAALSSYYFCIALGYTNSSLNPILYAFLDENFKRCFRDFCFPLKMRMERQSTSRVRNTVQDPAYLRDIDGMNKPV
T1 sequence (P25103 whole entry): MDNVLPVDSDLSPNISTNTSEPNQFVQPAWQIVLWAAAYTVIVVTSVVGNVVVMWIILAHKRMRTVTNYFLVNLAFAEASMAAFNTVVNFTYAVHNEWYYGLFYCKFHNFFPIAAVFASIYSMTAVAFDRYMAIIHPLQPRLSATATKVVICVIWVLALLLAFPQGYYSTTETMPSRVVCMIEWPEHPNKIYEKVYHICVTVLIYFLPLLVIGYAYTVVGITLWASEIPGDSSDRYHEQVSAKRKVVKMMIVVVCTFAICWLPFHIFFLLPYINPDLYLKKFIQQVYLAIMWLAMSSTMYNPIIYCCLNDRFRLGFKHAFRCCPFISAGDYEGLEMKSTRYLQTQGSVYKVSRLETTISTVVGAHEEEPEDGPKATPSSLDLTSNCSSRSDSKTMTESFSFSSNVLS

Structure (SMILES)	A8 radioligand binding, percentage inhibition (Human neurokinin (NK1))	A2 radioligand binding, percentage inhibition (Human κ-Opioid (KOP))	A6 radioligand binding, percentage inhibition [1]	A1 radioligand binding, percentage inhibition (Human δ-opioid (DOP))	A9 radioligand binding, percentage inhibition [2]	A11 radioligand binding, percentage inhibition (Mouse urotensin (mUR2))	A10 radioligand binding, percentage inhibition (Human opioid (ORL1))	A7 radioligand binding, percentage inhibition (Human μ-opioid (MOP))	A4 radioligand binding, percentage inhibition (Human Melanocortin (MC4))	A5 radioligand binding, percentage inhibition (Human melanocortin (MC5))	A3 radioligand binding, percentage inhibition (Human Melanocortin (MC3))
CO[C@H]1[C@H](O)[C@@H](COCc2ccc(-c3ccccc3)cc2)OC(OCCc2ccccc2)[C@@H]1NC(=O)CCCN (stereo partly shown) [compound 111]	+ (“+” indicates greater than 50% inhibition at 10 μM)	− (“−” indicates less than 50% inhibition at 10 μM)	− (“−” indicates less than 50% inhibition at 10 μM)	− (“−” indicates less than 50% inhibition at 10 μM)	− (“−” indicates less than 50% inhibition at 10 μM)	− (“−” indicates less than 50% inhibition at 10 μM)	− (“−” indicates less than 50% inhibition at 10 μM)	− (“−” indicates less than 50% inhibition at 10 μM)	− (“−” indicates less than 50% inhibition at 10 μM)	− (“−” indicates less than 50% inhibition at 10 μM)	− (“−” indicates less than 50% inhibition at 10 μM)
CO[C@H]1[C@H](O)[C@@H](COCc2ccc(-c3ccccc3)cc2)OC(OCCc2ccccc2)[C@@H]1NC(=O)CCCNC(=N)N (stereo partly shown) [compound 112]	+ (“+” indicates greater than 50% inhibition at 10 μM)	− (“−” indicates less than 50% inhibition at 10 μM)	− (“−” indicates less than 50% inhibition at 10 μM)	− (“−” indicates less than 50% inhibition at 10 μM)	− (“−” indicates less than 50% inhibition at 10 μM)	− (“−” indicates less than 50% inhibition at 10 μM)	− (“−” indicates less than 50% inhibition at 10 μM)	− (“−” indicates less than 50% inhibition at 10 μM)	+ (“+” indicates greater than 50% inhibition at 10 μM)	+ (“+” indicates greater than 50% inhibition at 10 μM)	+ (“+” indicates greater than 50% inhibition at 10 μM)
CO[C@H]1[C@H](O)[C@@H](COCc2ccc3ccccc3c2)OC(OCCc2ccccc2)[C@@H]1NC(=O)CNC(=N)N (stereo partly shown) [compound 113]	+ (“+” indicates greater than 50% inhibition at 10 μM)	− (“−” indicates less than 50% inhibition at 10 μM)	− (“−” indicates less than 50% inhibition at 10 μM)	− (“−” indicates less than 50% inhibition at 10 μM)	− (“−” indicates less than 50% inhibition at 10 μM)	− (“−” indicates less than 50% inhibition at 10 μM)	+ (“+” indicates greater than 50% inhibition at 10 μM)	− (“−” indicates less than 50% inhibition at 10 μM)	+ (“+” indicates greater than 50% inhibition at 10 μM)	+ (“+” indicates greater than 50% inhibition at 10 μM)	− (“−” indicates less than 50% inhibition at 10 μM)
CO[C@H]1[C@H](O)[C@@H](COCc2ccc3ccccc3c2)OC(OCCc2ccccc2)[C@@H]1NC(=O)CCNC(=N)N (stereo partly shown) [compound 114]	+ (“+” indicates greater than 50% inhibition at 10 μM)	+ (“+” indicates greater than 50% inhibition at 10 μM)	− (“−” indicates less than 50% inhibition at 10 μM)	− (“−” indicates less than 50% inhibition at 10 μM)	− (“−” indicates less than 50% inhibition at 10 μM)	− (“−” indicates less than 50% inhibition at 10 μM)	− (“−” indicates less than 50% inhibition at 10 μM)	− (“−” indicates less than 50% inhibition at 10 μM)	+ (“+” indicates greater than 50% inhibition at 10 μM)	+ (“+” indicates greater than 50% inhibition at 10 μM)	− (“−” indicates less than 50% inhibition at 10 μM)
CO[C@H]1[C@H](O)[C@@H](COCc2ccc3ccccc3c2)OC(OCCc2ccccc2)[C@@H]1NC(=O)CCCN (stereo partly shown) [compound 115]	+ (“+” indicates greater than 50% inhibition at 10 μM)	− (“−” indicates less than 50% inhibition at 10 μM)	− (“−” indicates less than 50% inhibition at 10 μM)	− (“−” indicates less than 50% inhibition at 10 μM)	− (“−” indicates less than 50% inhibition at 10 μM)	− (“−” indicates less than 50% inhibition at 10 μM)	− (“−” indicates less than 50% inhibition at 10 μM)	− (“−” indicates less than 50% inhibition at 10 μM)	− (“−” indicates less than 50% inhibition at 10 μM)	− (“−” indicates less than 50% inhibition at 10 μM)	− (“−” indicates less than 50% inhibition at 10 μM)
